Literature values as cited in patent US20240002325A1, “OXYLIPINS, PROCESSES FOR MAKING THE SAME, AND METHODS FOR USING THE SAME” (THE TRUSTEES OF INDIANA UNIVERSITY, priority 2020, published 2024).

Experiments:
[1] = test system: bacterial biofilms; conditions: in vitro; has been reported
[2] = test system: flagellum-driven swimming and swarming motilities; conditions: has been reported

## CCCCCCCCC(O)/C=C/CCCCCCC(=O)O (centres unmarked) [Compound 10-HOME, (E)-10-hydroxyoctadec-8-enoic acid]
[1]
  effect on formation of bacterial biofilms: stimulate the formation of bacterial biofilms in vitro
[2]
  effect on flagellum-driven swimming and swarming motilities: inhibit flagellum-driven swimming and swarming motilities
